Source: patent US4077999A, “Novel oxime ethers” (Egyt Gyogyszervegyeszeti Gyar, priority 1976, dated 1978)
Like-named read-outs stand apart in the source and are kept apart here.

Tests used:
ischiadic nerve of rats = experiment: Local analgesic effect (method of Truant and d'Amato), motor paralysis and its duration; assay type: in vivo; conditions: for Duration, minutes (o.5%): 0.5 % concentration; for Duration, minutes (o.5%) / Duration, minutes (1.0%): duration of local analgesic effect (motor paralysis); for Duration, minutes (1.0%): 1.0 % concentration; for Relative efficiency: local analgesic effect, referred to Lidocaine
Text: The local analgesic effect was investigated on the ischiadic nerve of rats by means of the method of Truant and d'Amato (Truant, A.P. and Wiedling, S.: Acta Chirurg. Scand. 116, 351 /1958/). Lidocaine served as reference substance. […]

in vivo [1] = experiment: in vivo
reserpine = experiment: Reserpine antagonistic effect, oral administration; assay type: in vivo; conditions: for ED50: Mus musculus, mice, oral administration, read-out: Reserpine antagonism ED50
Procedure: (§1) The tetrabenazine-reserpine antagonistic effect was investigated on mice in groups of ten animals each, at oral administration. The inhibition or suspension of the effect of the observed maximum dose was recorded, and the ED50 values were calculated on the basis of the dose vs. effect curves.

tetrabenazine = experiment: Tetrabenazine antagonistic effect, oral administration; assay type: in vivo; conditions: for ED50: Mus musculus, read-out: Tetrabenazine antagonism, ED50
Procedure: as §1

in vivo [2] = conditions: mouse
isolated rat-ileum = experiment: Spasmolytic effect on non-striated muscles in isolated rat-ileum (method of Brock et al.); conditions: related to papaverine
Procedure: The spasmolytic effect on non-striated muscles was determined in isolated rat-ileum by the method of Brock et al. (Brock, N., Geks, J. and Lorenz, D.: Arch. Exper. Path. u. Pharmacol. 215, 492 /1952/), applying papaverine as reference substance. In order to characterize the efficiency of an individual compound, the efficiency related to that of papaverine and the LD50 values observed on oral administration are shown in Table II.

nicotine lethality = experiment: Inhibition of nicotine lethality (method of Stone), oral administration; assay type: in vivo, mice; conditions: for Therapeutic index: LD50/ED50; for ED50: Mus musculus
[3] = mice, oral administration, Table IV
[4] = oral administration, Table II, read-out: LD50 p.o.
[5] = inhibition of nicotine lethality
[6] = mice, oral administration, Table III
[7] = inhibition of nicotine lethality, mice, oral administration, read-out: ED50

SMILES: CN(C)CCCON=C1CCCCC1=Cc1ccccc1 [Example 1, 2-Benzal-1-(3'-dimethylaminopropoxyimino)-cyclohexane]
- Duration, minutes (o.5%) (ischiadic nerve of rats): 99 min
- Duration, minutes (1.0%) (ischiadic nerve of rats): 115 min
- Relative efficiency (ischiadic nerve of rats): 1.7
- LD50 (in vivo [1]; po): 560 mg/kg
- ED50 (reserpine): 27 mg/kg
- Therapeutic index (reserpine; mouse, in vivo, po): 20.7
- ED50 (tetrabenazine; po): 80 mg/kg
- Therapeutic index (tetrabenazine; mouse, in vivo, po): 7.0
- LD50 (in vivo [2]; po): 560 mg/kg

SMILES: COc1ccccc1C=C1CCCCC1=NOCCCN(C)C [Example 15, 1-(3'-Dimethylaminopropoxyimino)-2-(o-methoxybenzal)-cyclohexane]
- Duration, minutes (o.5%) (ischiadic nerve of rats): 92 min
- Duration, minutes (1.0%) (ischiadic nerve of rats): 160 min
- Relative efficiency (ischiadic nerve of rats): 1.7
- LD50 (in vivo [1]; po): 880 mg/kg

SMILES: CN(C)CCC=C1c2ccccc2CCc2ccccc21 [Amitriptylin, reference compound]
- ED50 (reserpine): 65 mg/kg
- Therapeutic index (reserpine; reserpine antagonism): 3.5
- ED50 (tetrabenazine; po): 13 mg/kg
- Therapeutic index (tetrabenazine; tetrabenazine antagonism): 17.3
- LD50 (in vivo [2]; [3]): 225 mg/kg

SMILES: COc1ccc(Cc2nccc3cc(OC)c(OC)cc23)cc1OC [Papaverine, reference compound]
- LD50 (in vivo [1]; [4]): 367 mg/kg

SMILES: CCN(CC)CCON=C1CCCCC1=Cc1ccccc1 [Example 2, 2-Benzal-1-(2'-diethylaminoethoxyimino)-cyclohexane]
- Duration, minutes (o.5%) (ischiadic nerve of rats): 72 min
- Duration, minutes (1.0%) (ischiadic nerve of rats): 111 min
- Relative efficiency (ischiadic nerve of rats): 3.2
- LD50 (in vivo [1]; po): 430 mg/kg
- Relative efficiency (isolated rat-ileum): 1.73

SMILES: COc1ccccc1C=C1CCCCC1=NOCC(C)CN(C)C (stereo not drawn) [Example 18, 1-(2'-Methyl-3'-dimethylaminopropoxyimino)-2-(o-methoxybenzal)-cyclohexane]
- LD50 (in vivo [1]; [4]): 650 mg/kg
- Relative efficiency (isolated rat-ileum): 2.43

SMILES: CN(C)CCON=C1CCCC1=Cc1ccccc1 [Example 27, 2-Benzal-1-(2'-dimethylaminoethoxyimino)-cyclopentane]
- ED50 (reserpine): 18 mg/kg
- Therapeutic index (reserpine; reserpine antagonism): 33.0
- ED50 (tetrabenazine; po): 120 mg/kg
- Therapeutic index (tetrabenazine; tetrabenazine antagonism): 5.0
- LD50 (in vivo [2]; [3]): 600 mg/kg
- Therapeutic index (nicotine lethality; [5]): 12.8
- ED50 (nicotine lethality; po): 47 mg/kg

SMILES: CN(C)CCON=C1CCCC1=Cc1ccccc1 [Example 5, 2-Benzal-1-(2'-dimethylaminoethoxyimino)-cyclopentane]
- Duration, minutes (o.5%) (ischiadic nerve of rats): 68 min
- Duration, minutes (1.0%) (ischiadic nerve of rats): 96 min
- Relative efficiency (ischiadic nerve of rats): 1.8
- LD50 (in vivo [1]; po): 450 mg/kg

SMILES: NCCON=C1CCCCC1=Cc1ccccc1 [Example 4, 1-(2'-Aminoethoxyimino)-2-benzalcyclohexane]
- LD50 (in vivo [2]; [6]): 400 mg/kg
- Therapeutic index (nicotine lethality; [5]): 36.4
- ED50 (nicotine lethality; [7]): 11 mg/kg

SMILES: CN(C)CCCON=C1CCCCCC1=Cc1ccccc1 [Example 10, 2-Benzal-1-(3'-dimethylaminopropoxyimino)-cycloheptane]
- LD50 (in vivo [1]; [4]): 550 mg/kg
- Relative efficiency (isolated rat-ileum): 2.42

SMILES: CC(C)N(CCON=C1CCCCCC1=Cc1ccccc1)C(C)C [Example 11, 2-Benzal-1-(2'-diisopropylaminoethoxyimino)-cycloheptane]
- LD50 (in vivo [1]; [4]): 325 mg/kg
- Relative efficiency (isolated rat-ileum): 3.01

SMILES: OC(CCN1CCCCC1)(c1ccccc1)C1CCCCC1 (stereo not drawn) [Trihexyphenidyl (Artane), Trihexyphenidyl, reference compound]
- ED50 (nicotine lethality; [7]): 40 mg/kg

SMILES: CN(C)CCCON=C1CCCCC1=Cc1ccc(Cl)cc1 [Example 19, 1-(Dimethylaminopropoxyimino)-2-(p-chlorobenzal)-cyclohexane]
- ED50 (reserpine): > 180 mg/kg
- Therapeutic index (reserpine; reserpine antagonism): 5.0
- ED50 (tetrabenazine; po): 34 mg/kg
- Therapeutic index (tetrabenazine; tetrabenazine antagonism): 26.5
- LD50 (in vivo [2]; [3]): 900 mg/kg

SMILES: CCN(CC)CCON=C1CCCC1=Cc1ccccc1 [Example 7, 2-Benzal-1-(2'-diethylaminoethoxyimino)-cyclopentane]
- Duration, minutes (o.5%) (ischiadic nerve of rats): 94 min
- Duration, minutes (1.0%) (ischiadic nerve of rats): 127 min
- Relative efficiency (ischiadic nerve of rats): 1.8
- LD50 (in vivo [1]; po): 210 mg/kg

SMILES: CN(C)CCCON=C1CCCCC1=Cc1ccccc1Cl [Example 21, 1-(Dimethylaminopropoxyimino)-2-(o-chlorobenzal)-cyclohexane]
- ED50 (reserpine): > 100 mg/kg
- Therapeutic index (reserpine; reserpine antagonism): 15.0
- ED50 (tetrabenazine; po): 22 mg/kg
- Therapeutic index (tetrabenazine; tetrabenazine antagonism): 68.2
- LD50 (in vivo [2]; [3]): 1500 mg/kg

SMILES: COc1ccc(C=C2CCCCCC2=NOCCCN(C)C)cc1 [Example 13, 1-(3'-Dimethylaminopropoxyimino)-2-(p-methoxybenzal)-cycloheptane]
- LD50 (in vivo [1]; [4]): 1000 mg/kg
- Relative efficiency (isolated rat-ileum): 1.96
- ED50 (reserpine): 80 mg/kg
- Therapeutic index (reserpine; reserpine antagonism): 12.5
- ED50 (tetrabenazine; po): 70 mg/kg
- Therapeutic index (tetrabenazine; tetrabenazine antagonism): 14.3
- LD50 (in vivo [2]; [3]): 1000 mg/kg

SMILES: CC(C)N(CCON=C1CCCC1=Cc1ccccc1)C(C)C [Example 8, 2-Benzal-1-(2'-diisopropylaminoethoxyimino)-cyclopentane]
- Duration, minutes (o.5%) (ischiadic nerve of rats): 66 min
- Duration, minutes (1.0%) (ischiadic nerve of rats): 129 min
- Relative efficiency (ischiadic nerve of rats): 1.1
- LD50 (in vivo [1]; po): 450 mg/kg

SMILES: CCN(CC)CC(=O)Nc1c(C)cccc1C [Lidocaine, reference compound]
- Duration, minutes (o.5%) (ischiadic nerve of rats): 28 min
- Duration, minutes (1.0%) (ischiadic nerve of rats): 52 min

SMILES: CN(C)CCCON=C1CCCCCC1=Cc1ccc(Cl)cc1 [Example 12, 1-(3'-Dimethylaminopropoxyimino)-2-(p-chlorobenzal)-cycloheptane]
- LD50 (in vivo [2]; [6]): 1450 mg/kg
- Therapeutic index (nicotine lethality; [5]): 36.3
- ED50 (nicotine lethality; [7]): 40 mg/kg
